Consider 6 compounds from article PMC5374441 (Scientific Reports, 2017).

Like-named read-outs stand apart in the source and are kept apart here. Bridge positions count the residues as written; N and C are the ends. Peptide text beside a SMILES is read from it.

Holding throughout (assay): biochemical
Holding throughout (assay type): binding

Assay [1] deals with T1, Ls-AChBP (Lymnaea stagnalis, UniProt P58154).
T1 construct: made in house

Assay [2] has as its target T2, Ac-AChBP (Aplysia californica, UniProt Q8WSF8).
T2 construct: made in house
To be noted: SEM.

For assay [3], the target named is T3, Q55K Ls-AChBP mutant (Lymnaea stagnalis, UniProt P58154, Q74K).
T3 construct: made in house; Top10 E. coli is named only for plasmid propagation

The term IC50 denotes the point on the concentration scale where inhibition reaches its midpoint. As to `CC[C@H](C)[C@@H]1NC(=O)[C@H](CC(N)=O)NC(=O)[C@@H]2CCCN2C(=O)[C@H](CC(N)=O)NC(=O)[C@H](CC(=O)O)NC(=O)[C@H](C(C)C)NC(=O)[C@H](CCCNC(=N)N)NC(=O)[C@@H]2CSSC[C@H](NC(=O)CNC(=O)[C@@H](N)CO)C(=O)N[C@@H](CSSC[C@@H](C(N)=O)NC1=O)C(=O)N[C@@H](CO)C(=O)N[C@@H](CC(N)=O)C(=O)N1CCC[C@H]1C(=O)N[C@@H](C)C(=O)N2` [N12D-LsIA] (H-SGCCSNPACRVDNPNIC-NH2; disulfide 3-9, 4-17), the IC50 was greater than 10000 nM in assay [1] and 5550 nM in assay [2].

In the case of `CC[C@H](C)[C@@H]1NC(=O)[C@H](CC(N)=O)NC(=O)[C@@H]2CCCN2C(=O)[C@H](CC(N)=O)NC(=O)[C@H](CC(C)C)NC(=O)[C@H](C(C)C)NC(=O)[C@H](CCCNC(=N)N)NC(=O)[C@@H]2CSSC[C@H](NC(=O)CNC(=O)[C@@H](N)CO)C(=O)N[C@@H](CSSC[C@@H](C(N)=O)NC1=O)C(=O)N[C@@H](CO)C(=O)N[C@@H](CC(N)=O)C(=O)N1CCC[C@H]1C(=O)N[C@@H](C)C(=O)N2` [N12L-LsIA] (H-SGCCSNPACRVLNPNIC-NH2; disulfide 3-9, 4-17), the IC50 is greater than 10000 nM in assay [1] and 61 ± 7 nM in assay [2].

On to `CC[C@H](C)[C@@H]1NC(=O)[C@H](CC(N)=O)NC(=O)[C@@H]2CCCN2C(=O)[C@H](CC(N)=O)NC(=O)[C@H](CCC(N)=O)NC(=O)[C@H](C(C)C)NC(=O)[C@H](CCCNC(=N)N)NC(=O)[C@@H]2CSSC[C@H](NC(=O)CNC(=O)[C@@H](N)CO)C(=O)N[C@@H](CSSC[C@@H](C(N)=O)NC1=O)C(=O)N[C@@H](CO)C(=O)N[C@@H](CC(N)=O)C(=O)N1CCC[C@H]1C(=O)N[C@@H](C)C(=O)N2` [N12Q-LsIA] (H-SGCCSNPACRVQNPNIC-NH2; disulfide 3-9, 4-17), for which the IC50 in assay [1] (SEM) worked out at 2440 ± 750 nM; in assay [2], 55.2 ± 0.9 nM.

With `CC[C@H](C)[C@@H]1NC(=O)[C@H](CC(N)=O)NC(=O)[C@@H]2CCCN2C(=O)[C@H](CC(N)=O)NC(=O)[C@H](CC(N)=O)NC(=O)[C@H](C(C)C)NC(=O)[C@H](CC(=O)O)NC(=O)[C@@H]2CSSC[C@H](NC(=O)CNC(=O)[C@@H](N)CO)C(=O)N[C@@H](CSSC[C@@H](C(N)=O)NC1=O)C(=O)N[C@@H](CO)C(=O)N[C@@H](CC(N)=O)C(=O)N1CCC[C@H]1C(=O)N[C@@H](C)C(=O)N2` [R10D-LsIA] (H-SGCCSNPACDVNNPNIC-NH2; disulfide 3-9, 4-17), the figures for the IC50 in assay [1], in assay [2] and in assay [3] were greater than 10000 nM, 8370 nM and greater than 10000 nM, respectively. In assay [1], the “activity at Ls-AChBP (in words)” value was “inactive”.

In the case of `CC[C@H](C)[C@@H]1NC(=O)[C@H](CC(N)=O)NC(=O)[C@@H]2CCCN2C(=O)[C@H](CC(N)=O)NC(=O)[C@H](CC(N)=O)NC(=O)[C@H](C(C)C)NC(=O)[C@H](Cc2ccccc2)NC(=O)[C@@H]2CSSC[C@H](NC(=O)CNC(=O)[C@@H](N)CO)C(=O)N[C@@H](CSSC[C@@H](C(N)=O)NC1=O)C(=O)N[C@@H](CO)C(=O)N[C@@H](CC(N)=O)C(=O)N1CCC[C@H]1C(=O)N[C@@H](C)C(=O)N2` [R10F-LsIA] (H-SGCCSNPACFVNNPNIC-NH2; disulfide 3-9, 4-17), the concentration for half-maximal inhibition (IC50) was 110 ± 20 nM in assay [1] (SEM), 2.2 ± 0.05 nM in assay [2] and 800 ± 260 nM in assay [3] (SEM).

For `CC[C@H](C)[C@@H]1NC(=O)[C@H](CC(N)=O)NC(=O)[C@@H]2CCCN2C(=O)[C@H](CC(N)=O)NC(=O)[C@H](CC(N)=O)NC(=O)[C@H](C(C)C)NC(=O)[C@H](CCSC)NC(=O)[C@@H]2CSSC[C@H](NC(=O)CNC(=O)[C@@H](N)CO)C(=O)N[C@@H](CSSC[C@@H](C(N)=O)NC1=O)C(=O)N[C@@H](CO)C(=O)N[C@@H](CC(N)=O)C(=O)N1CCC[C@H]1C(=O)N[C@@H](C)C(=O)N2` [R10M-LsIA] (H-SGCCSNPACMVNNPNIC-NH2; disulfide 3-9, 4-17), the half-inhibitory concentration (IC50) is 500 ± 160 nM in assay [1] (SEM), 1.88 ± 0.65 nM in assay [2] and 7100 ± 2500 nM in assay [3] (SEM).
